One assay addresses T1, hM4 receptors (Homo sapiens, UniProt P08173).
T1 construct: expressed in transfected cells; host or cells: CHO cells
T1 sequence (P08173 1-479): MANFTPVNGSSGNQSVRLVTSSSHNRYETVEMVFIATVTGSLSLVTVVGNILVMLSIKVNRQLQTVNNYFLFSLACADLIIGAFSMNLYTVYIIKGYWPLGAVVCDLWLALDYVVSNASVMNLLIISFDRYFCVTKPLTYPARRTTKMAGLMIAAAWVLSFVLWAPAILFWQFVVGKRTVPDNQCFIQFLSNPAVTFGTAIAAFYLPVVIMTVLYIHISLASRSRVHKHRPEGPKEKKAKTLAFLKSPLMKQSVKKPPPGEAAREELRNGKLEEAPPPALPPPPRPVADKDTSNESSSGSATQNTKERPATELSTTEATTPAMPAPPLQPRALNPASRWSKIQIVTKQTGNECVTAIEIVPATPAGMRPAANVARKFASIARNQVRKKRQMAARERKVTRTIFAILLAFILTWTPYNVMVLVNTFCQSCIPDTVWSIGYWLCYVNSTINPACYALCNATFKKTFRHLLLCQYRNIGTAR
The assay is described as follows: Human M4 PAM pERK assay. The conditions noted are these: CHO cells expressing hM4; EC20 of acetylcholine (10 nM final); TR-FRET. It counts as cell-based. As for the experimental part: (§1) Chinese hamster ovary (CHO) cells expressing either hM4 or rM4 receptors were frozen in assay ready vials (5×10^6 cells/vial) after bulking-up in culture. The day before an assay, vial(s) were thawed and cells seeded in 384 well white proxiplates at 1000/well for hM4 cells and at 2000/well for rM4 cells, in 10 μL of growth media (Hams/F12 with glutamax and 10% FCS) and incubated overnight at 37° C./5% CO2.
(§2) On the following morning, the growth media was removed by ‘flicking out’ over a bin, patting the inverted plate onto tissue, and then replacing with 10 μL of wash media (Hams/F12 with glutamax and 8 mM HEPES, NB: serum free). Then, the wash media was removed in the same way and replaced with 8 μL/well of the serum free media. Plates were then re-incubated for a further 4 hours at 37° C./5% CO2.
(§3) Compounds for testing were solubilized to 10 mM in DMSO and compound addition plates, consisting of ten-point concentration response curves (CRC) in duplicate points (10 μM top concentration, 1/2 log dilution series), were prepared by acoustic dispensing and the compound management group.
(§4) After the 4-hour incubation in serum free media, a 4 μL aliquot of the 3× compound solution containing an EC20 of acetylcholine (10 nM final concentration) was added to the cell plate using a 384 well plate to plate transfer. Then, the plate lid was replaced, and the cells incubated for 5 mins at 37° C./5% CO2. Following this final incubation, all cellular processes were stopped by the addition of 4 μL/well of lysis and blocking buffer and plates were incubated for 30 minutes at RT on an orbital shaker (gentle setting). Then, a final addition of 4 μL/well of antibody detection mix, containing both the Europium-Cryptate (donor) and d2 (acceptor) tagged detection components, was added followed by a further 2-hour incubation at RT, and then the plate was read using a TR-FRET (time resolved fluorescence resonance energy transfer) based protocol.
A general note: In TR-FRET formats the signal depends on donor and acceptor labels being close together.

For the next assay, the target named is T2, rM4 receptors (Rattus norvegicus, UniProt P08485).
T2 construct: expressed in transfected cells; host or cells: CHO cells
T2 sequence (P08485 1-478): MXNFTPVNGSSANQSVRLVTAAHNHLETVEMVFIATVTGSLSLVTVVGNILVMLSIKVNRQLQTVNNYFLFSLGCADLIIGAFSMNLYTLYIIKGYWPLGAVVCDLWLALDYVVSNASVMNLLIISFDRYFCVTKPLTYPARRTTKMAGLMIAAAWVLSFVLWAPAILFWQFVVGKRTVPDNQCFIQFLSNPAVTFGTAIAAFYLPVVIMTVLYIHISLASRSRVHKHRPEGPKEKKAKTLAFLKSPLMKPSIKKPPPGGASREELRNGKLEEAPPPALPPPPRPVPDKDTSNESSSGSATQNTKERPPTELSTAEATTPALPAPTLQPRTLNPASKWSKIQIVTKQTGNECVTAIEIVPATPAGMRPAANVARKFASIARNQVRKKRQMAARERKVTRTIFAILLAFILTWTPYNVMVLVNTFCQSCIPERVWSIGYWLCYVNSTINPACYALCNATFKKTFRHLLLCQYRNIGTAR
The assay is described as follows: Rat M4 PAM pERK assay. In kind it is cell-based. The conditions noted are these: CHO cells expressing rM4; EC20 of acetylcholine (10 nM final); TR-FRET. The method, then:
as §1, §2, §3, §4

`COc1nc(C#N)nc2c1C(C)N(C(=O)CC1CN(c3cccc(C(F)(F)F)c3)C1)C2` (single isomer, unassigned) [Compound I-16, 4-Methoxy-5-methyl-6-(2-(1-(3-(trifluoromethyl)phenyl)azetidin-3-yl)acetyl)-6,7-dihydro-5H-pyrrolo[3,4-d]pyrimidine-2-carbonitrile]: the EC50 at hM4 receptors and at rM4 receptors was 100 to 500 nM each time.
`COc1nc(C#N)nc2c1C(C)N(C(=O)CC1C(C)N(c3ccnc(C(F)(F)F)c3)C1C)C2` (centres unmarked) [Compound I-40, 6-(2-(2,4-Dimethyl-1-(2-(trifluoromethyl)pyridin-4-yl)azetidin-3-yl)acetyl)-4-methoxy-5-methyl-6,7-dihydro-5H-pyrrolo[3,4-d]pyrimidine-2-carbonitrile]: the EC50 – broadly, the midpoint of the concentration-response curve – on hM4 receptors is 500 to 2000 nM; at rM4 receptors it was 100 to 500 nM.
Turning to `COc1nc(C2COC2)nc2c1CN(C(=O)CC1CN(c3ccnc(C(F)(F)F)c3)C1)C2` [Compound I-77, 1-(4-Methoxy-2-(oxetan-3-yl)-5,7-dihydro-6H-pyrrolo[3,4-d]pyrimidin-6-yl)-2-(1-(2-(trifluoromethyl)pyridin-4-yl)azetidin-3-yl)ethan-1-one], the EC50 on hM4 receptors and at rM4 receptors was no less than 2000 nM in each case.
As for `COc1nc(C#N)nc2c1C(C)N(C(=O)CC1CN(c3cncnc3)C1)C2` (single isomer, unassigned) [Compound I-26, 4-Methoxy-5-methyl-6-(2-(1-(pyrimidin-5-yl)azetidin-3-yl)acetyl)-6,7-dihydro-5H-pyrrolo[3,4-d]pyrimidine-2-carbonitrile], the EC50 is 500 to 2000 nM on hM4 receptors and no less than 2000 nM at rM4 receptors.
The matching figures for `COc1cc(N2CC(CC(=O)N3Cc4nc(C#N)nc(OC)c4C3C)C2)ccn1` (single isomer, unassigned) [Compound I-17, 4-Methoxy-6-(2-(1-(2-methoxypyridin-4-yl)azetidin-3-yl)acetyl)-5-methyl-6,7-dihydro-5H-pyrrolo[3,4-d]pyrimidine-2-carbonitrile]: no less than 2000 nM and no less than 2000 nM.
With `COc1nc(C#N)nc2c1C(C)N(C(=O)CC1CN(c3cc(F)cc(F)c3)C1)C2` (single isomer, unassigned) [Compound I-10, 6-(2-(1-(3,5-Difluorophenyl)azetidin-3-yl)acetyl)-4-methoxy-5-methyl-6,7-dihydro-5H-pyrrolo[3,4-d]pyrimidine-2-carbonitrile], the concentration for a half-maximal effect (EC50) at hM4 receptors and at rM4 receptors was no less than 2000 nM throughout.
Take `COc1nc(C#N)nc2c1C(C)N(C(=O)CC1CN(c3cc(F)cc(F)c3)C1)C2` (single isomer, unassigned) [Compound I-9, 6-(2-(1-(3,5-Difluorophenyl)azetidin-3-yl)acetyl)-4-methoxy-5-methyl-6,7-dihydro-5H-pyrrolo[3,4-d]pyrimidine-2-carbonitrile]: the EC50 at hM4 receptors and at rM4 receptors was no more than 100 nM each time.
For `CNc1nc(C)nc2c1CN(C(=O)CC1CN(c3cccnc3)C1)C2` [Compound I-72, 1-(2-Methyl-4-(methylamino)-5,7-dihydro-6H-pyrrolo[3,4-d]pyrimidin-6-yl)-2-(1-(pyridin-3-yl)azetidin-3-yl)ethan-1-one], the figures for the concentration giving a half-maximal response (EC50) at hM4 receptors and on rM4 receptors were 500 to 2000 nM and no less than 2000 nM, respectively.
Take `COc1nc(C)nc2c1CN(C(=O)CC1CN(c3ccnc(C(F)(F)F)c3)C1)C2C` (racemic) [Compound I-61, 1-(4-Methoxy-2,7-dimethyl-5,7-dihydro-6H-pyrrolo[3,4-d]pyrimidin-6-yl)-2-(1-(2-(trifluoromethyl)pyridin-4-yl)azetidin-3-yl)ethan-1-one]: the EC50 at hM4 receptors and on rM4 receptors was 500 to 2000 nM in each case.
Consider `COc1nc(OC(F)F)nc2c1CN(C(=O)CC1CN(c3cccnc3)C1)C2` [Compound I-80, 1-(2-(Difluoromethoxy)-4-methoxy-5,7-dihydro-6H-pyrrolo[3,4-d]pyrimidin-6-yl)-2-(1-(pyridin-3-yl)azetidin-3-yl)ethan-1-one], for which the EC50 at hM4 receptors is 500 to 2000 nM; at rM4 receptors it was no less than 2000 nM.
Take `COc1nc(C#N)nc2c1C(C)N(C(=O)CC1CN(c3ncns3)C1)C2` (single isomer, unassigned) [Compound I-3, 6-(2-(1-(1,2,4-Thiadiazol-5-yl)azetidin-3-yl)acetyl)-4-methoxy-5-methyl-6,7-dihydro-5H-pyrrolo[3,4-d]pyrimidine-2-carbonitrile]: the results for the EC50 at hM4 receptors and on rM4 receptors were 100 to 500 nM and 500 to 2000 nM, respectively.
The matching figures for `COc1nc(C(F)(F)F)nc2c1CN(C(=O)CC1CN(c3cccnc3)C1)C2` [Compound I-78, 1-(4-Methoxy-2-(trifluoromethyl)-5,7-dihydro-6H-pyrrolo[3,4-d]pyrimidin-6-yl)-2-(1-(pyridin-3-yl)azetidin-3-yl)ethan-1-one]: 100 to 500 nM and 500 to 2000 nM.
The matching figures for `COc1nc(C)nc2c1CN(C(=O)CC1CN(c3cccnc3)C1)C2` [Compound I-41, 1-(4-Methoxy-2-methyl-5,7-dihydro-6H-pyrrolo[3,4-d]pyrimidin-6-yl)-2-(1-(pyridin-3-yl)azetidin-3-yl)ethan-1-one]: 100 to 500 nM and 500 to 2000 nM.
The matching figures for `COc1nc(C)nc2c1C(C)N(C(=O)CC1CN(c3cncnc3)C1)C2` (single isomer, unassigned) [Compound I-59, 1-(4-Methoxy-2,5-dimethyl-5,7-dihydro-6H-pyrrolo[3,4-d]pyrimidin-6-yl)-2-(1-(pyrimidin-5-yl)azetidin-3-yl)ethan-1-one]: no more than 100 nM and 500 to 2000 nM.
Take `Cc1nc2c(c(NC3CC3)n1)CN(C(=O)CC1CN(c3cccnc3)C1)C2` [Compound I-73, 1-(4-(Cyclopropylamino)-2-methyl-5,7-dihydro-6H-pyrrolo[3,4-d]pyrimidin-6-yl)-2-(1-(pyridin-3-yl)azetidin-3-yl)ethan-1-one]: the EC50 on hM4 receptors was 500 to 2000 nM; on rM4 receptors it was no less than 2000 nM.
The matching figures for `COc1cc(N2CC(CC(=O)N3Cc4nc(C#N)nc(OC)c4C3C)C2)ccn1` (single isomer, unassigned) [Compound I-18, 4-Methoxy-6-(2-(1-(2-methoxypyridin-4-yl)azetidin-3-yl)acetyl)-5-methyl-6,7-dihydro-5H-pyrrolo[3,4-d]pyrimidine-2-carbonitrile]: no more than 100 nM and 500 to 2000 nM.

Values taken from patent US20260209234A1, “SUBSTITUTED DIHYDROPYRROLO[3,4-D]PYRIMIDINE COMPOUNDS AND THEIR USE IN TREATING MEDICAL CONDITIONS” (Karuna Therapeutics, Inc., priority 2022, published 2026).
